pIC50: −log10 of the molar value. Converted amounts (≈) assume the structure as drawn. Read-outs that look alike come from different tables or passages of the source.
Tests used:
[1] = biological target: Mtb AccD6 (Mycobacterium tuberculosis, UniProt P9WQH5); test: biochemical; type: biochemical; conditions: for pIC50 / IC50: 300 μM malonyl-CoA, inhibitor 10 μM to 2000 μM; for pIC50: read-out: IC50; for inhibition at 20 µM: read-out: inhibition at 20 uM; for Mtb AccD6 inhibition: preliminary studies of commercially available herbicides
Sequence of Mtb AccD6 (P9WQH5 whole entry, looked up): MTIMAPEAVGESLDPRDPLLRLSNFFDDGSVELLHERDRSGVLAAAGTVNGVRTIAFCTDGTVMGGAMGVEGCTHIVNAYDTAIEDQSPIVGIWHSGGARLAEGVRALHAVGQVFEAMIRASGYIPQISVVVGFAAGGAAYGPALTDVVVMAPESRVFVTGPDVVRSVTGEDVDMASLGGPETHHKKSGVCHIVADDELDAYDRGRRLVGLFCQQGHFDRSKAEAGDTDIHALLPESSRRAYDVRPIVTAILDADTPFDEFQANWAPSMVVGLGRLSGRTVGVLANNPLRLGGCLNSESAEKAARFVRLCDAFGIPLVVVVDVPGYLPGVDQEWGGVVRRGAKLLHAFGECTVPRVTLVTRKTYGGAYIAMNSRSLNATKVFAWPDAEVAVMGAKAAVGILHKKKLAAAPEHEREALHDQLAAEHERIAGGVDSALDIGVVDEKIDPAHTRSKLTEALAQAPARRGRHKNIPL

[2] = tested on: Mtb strain mc^2-7000; test: microbe, parasite or virus in culture; type: cell-based, Mycobacterium tuberculosis; conditions: for MIC: 6 days incubation at 37° C., resazurin, read on the 7th day; for whole Mycobacterium tuberculosis cell inhibition: preliminary studies of commercially available herbicides
[3] = tested on: S. cerevisiae
[4] = Mycobacterium tuberculosis, 144 h, read-out: MIC

Row | Compound | pIC50 [1] | concentrations at which not toxic, s. cerevisiae cytotoxicity [3] | MIC [2, 4] | also measured
1 | CNC(=O)NCc1ccc(Oc2nc3ccc(Cl)cc3s2)cc1 [NZ-350, 1-({4-[(6-chloro-1,3-benzothiazol-2-yl)oxy]phenyl}methyl)-3-methylurea] | 5.80 | ≥ 100 µM |  | MIC [2]: Not Active
2 | NCc1ccc(Oc2nc3ccc(Cl)cc3s2)cc1 [NZ-348, {4-[(6-chloro-1,3-benzothiazol-2-yl)oxy]phenyl}methanamine] |  | 25 to 50 µM | 2 µM (≈ 0.582 µg/mL) | IC50 [1]: Not Active
3 | CC(C)NC(=O)Nc1ccc(Oc2nc3ccccc3s2)cc1 [NZ-360, 1-[4-(1,3-benzothiazol-2-yloxy)phenyl]-3-(propan-2-yl)urea] | 4.88 | ≥ 100 µM | 4.3 µM (≈ 1.41 µg/mL) | 
4 | Cc1ccc2nc(Oc3ccc(NC(=O)NC(C)C)cc3)sc2c1 [NZ-358, 1-{4-[(6-methyl-1,3-benzothiazol-2-yl)oxy]phenyl}-3-(propan-2-yl)urea] | 4.70 | ≥ 100 µM | 5.8 µM (≈ 1.98 µg/mL) | 
5 | COC(=O)C(OC)c1ccc(Oc2nc3ccc(Cl)cc3s2)cc1 (stereo not drawn) [NZ-355, methyl 2-{4-[(6-chloro-1,3-benzothiazol-2-yl)oxy]phenyl}-2-methoxyacetate] | 4.70 | ≥ 100 µM | 4.5 µM (≈ 1.64 µg/mL) | 
6 | CCOC(=O)[C@@H](C)Oc1ccc(Oc2nc3ccccc3s2)cc1 [NZ-252, ethyl (2R)-2-[4-(1,3-benzothiazol-2-yloxy)phenoxy]propanoate] |  |  |  | IC50 [1]: Not Soluble; MIC [2]: Not Soluble
7 | NC(=O)COc1ccc(Oc2cnc3cc(Cl)ccc3n2)cc1 [NZ-258, 2-{4-[(6-chloroquinoxalin-2-yl)oxy]phenoxy}acetamide] | 5.51 to 5.68 |  | 50 µM (≈ 16.5 µg/mL) | 
8 | Clc1ccc2nc(Oc3ccc(OCc4ncc[nH]4)cc3)cnc2c1 [NZ-273, 6-chloro-2-[4-(1H-imidazol-2-ylmethoxy)phenoxy]quinoxaline] | 5.10 |  | > 25 µM | 
9 | CONC(=O)C(OC)c1ccc(Oc2nc3ccc(Cl)cc3s2)cc1 (stereo not drawn) [NZ-357, 2-{4-[(6-chloro-1,3-benzothiazol-2-yl)oxy]phenyl}-N,2-dimethoxyacetamide] | 5.44 | ≥ 100 µM | 20 µM (≈ 7.58 µg/mL) | 
10 | CC(C)NC(=O)Cn1ccc(Oc2nc3ccc(Cl)cc3s2)cc1=O [NZ-404, 2-{4-[(6-chloro-1,3-benzothiazol-2-yl)oxy]-2-oxo-1,2-dihydropyridin-1-yl}-N-(propan-2-yl)acetamide] | 4.84 |  |  | % at 50 uM [2]: 38% at 50 uM
11 | COC(C(=O)O)c1ccc(Oc2nc3ccc(Cl)cc3s2)cc1 (stereo not drawn) [NZ-356, 2-{4-[(6-chloro-1,3-benzothiazol-2-yl)oxy]phenyl}-2-methoxyacetic acid] | 5.77 | ≥ 100 µM | 25 µM (≈ 8.74 µg/mL) | 
12 | CNC(=O)C(C)c1ccc(Oc2nc3ccc(F)cc3s2)cc1O (stereo not drawn) [NZ-408, 2-{4-[(6-fluoro-1,3-benzothiazol-2-yl)oxy]-2-hydroxyphenyl}-N-methylpropanamide] | 6.68 |  | 6.5 µM (≈ 2.25 µg/mL) | 
13 | CS(=O)(=O)NC(=O)COc1ccc(Oc2cnc3cc(Cl)ccc3n2)cc1 [NZ-259, 2-{4-[(6-chloroquinoxalin-2-yl)oxy]phenoxy}-N-methanesulfonylacetamide] | 5.59 to 5.80 |  | > 50 µM | 
14 | O=C(O)/C=C/c1ccc(Oc2nc3ccc(Cl)cc3s2)cc1 [NZ-283, (2E)-3-{4-[(6-chloro-1,3-benzothiazol-2-yl)oxy]phenyl}prop-2-enoic acid] |  |  | 12 µM (≈ 3.98 µg/mL) | inhibition at 20 µM [1]: 33%
15 | CONC(=O)Nc1ccc(Oc2cnc3cc(Cl)ccc3n2)cc1 [NZ-344, 1-{4-[(6-chloroquinoxalin-2-yl)oxy]phenyl}-3-methoxyurea] | 5.39 |  | 25 µM (≈ 8.62 µg/mL) | 
16 | CC(C)=NOCCOC(=O)C(C)Oc1ccc(Oc2cnc3cc(Cl)ccc3n2)cc1 (stereo not drawn) [propaquizafop, 2-{[(propan-2-ylidene)amino]oxy}ethyl 2-{4-[(6-chloroquinoxalin-2-yl)oxy]phenoxy}propanoate, reference compound] | 5.68 |  | 1.56 µM (≈ 0.692 µg/mL) | 
17 | Clc1ccc2nc(Oc3ccc(OCc4nnn[nH]4)cc3)cnc2c1 [NZ-268, 6-chloro-2-[4-(1H-1,2,3,4-tetrazol-5-ylmethoxy)phenoxy]quinoxaline] | 5.77 |  | > 12.5 µM | 
18 | CC(C)NC(=O)Cc1ccc(O)cc1Oc1nc2ccc(F)cc2s1 [NZ-406, 2-{2-[(6-fluoro-1,3-benzothiazol-2-yl)oxy]-4-hydroxyphenyl}-N-(propan-2-yl)acetamide] |  |  |  | IC50 [1]: Not Active; % at 50 uM [2]: 46% at 50 uM
19 | O=C(COc1ccc(Oc2cnc3cc(Cl)ccc3n2)cc1)N1CCCCC1 [NZ-265, 2-{4-[(6-chloroquinoxalin-2-yl)oxy]phenoxy}-1-(piperidin-1-yl)ethan-1-one] | 6.24 |  | 3 µM (≈ 1.19 µg/mL) | 

Row | Compound | pIC50 [1] | concentrations at which not toxic, s. cerevisiae cytotoxicity [3] | MIC [2, 4] | also measured
20 | CNC(=O)COc1ccc(Oc2cnc3cc(Cl)ccc3n2)cc1 [NZ-267, 2-{4-[(6-chloroquinoxalin-2-yl)oxy]phenoxy}-N-methylacetamide] | 5.62 |  | > 25 µM | 
21 | CC(C)(C)OC(=O)NCc1ccc(Oc2nc3ccc(Cl)cc3s2)cc1 [NZ-347, tert-butyl N-({4-[(6-chloro-1,3-benzothiazol-2-yl)oxy]phenyl}methyl)carbamate] |  | ≥ 100 µM | 15 µM (≈ 5.86 µg/mL) | IC50 [1]: Not Active
22 | CN(C)C(=O)COc1ccc(Oc2cnc3cc(Cl)ccc3n2)cc1 [NZ-262, 2-{4-[(6-chloroquinoxalin-2-yl)oxy]phenoxy}-N,N-dimethylacetamide] | 5.74 |  | > 25 µM | 
23 | CC(C)(C)OC(=O)Nc1ccc(Oc2nc3ccc(Cl)cc3s2)cc1 [NZ-351, tert-butyl N-{4-[(6-chloro-1,3-benzothiazol-2-yl)oxy]phenyl}carbamate] |  | ≥ 100 µM |  | IC50 [1]: Not Active; MIC [2]: Not Active
24 | CCC/C(=N\OCC)C1=C(O)CC(CC(C)SCC)CC1=O (stereo not drawn) [sethoxydim, reference compound] |  |  |  | Mtb AccD6 inhibition [1]: only haloxyfop exhibited Mtb AccD6 inhibition; whole Mycobacterium tuberculosis cell inhibition [2]: none exhibited whole Mycobacterium tuberculosis cell inhibition
25 | Nc1ccc(Oc2nc3ccc(Cl)cc3s2)cc1 [NZ-352, 4-[(6-chloro-1,3-benzothiazol-2-yl)oxy]aniline] |  | 25 to 50 µM | 1.5 µM (≈ 0.415 µg/mL) | IC50 [1]: Not Active
26 | O=C(COc1ccc(Oc2cnc3cc(Cl)ccc3n2)cc1)NO [NZ-286, 2-{4-[(6-chloroquinoxalin-2-yl)oxy]phenoxy}-N-hydroxyacetamide] | 5.85 |  | 3 µM (≈ 1.04 µg/mL) | 
27 | CC(C)NC(=O)Nc1ccc(Oc2nc3ccc(Br)cc3s2)cc1 [NZ-359, 1-{4-[(6-bromo-1,3-benzothiazol-2-yl)oxy]phenyl}-3-(propan-2-yl)urea] | 5.08 | ≥ 100 µM | > 50 µM | 
28 | cyhalofop [reference compound] |  |  |  | Mtb AccD6 inhibition [1]: only haloxyfop exhibited Mtb AccD6 inhibition; whole Mycobacterium tuberculosis cell inhibition [2]: none exhibited whole Mycobacterium tuberculosis cell inhibition
29 | CN(C)C(=O)Nc1ccc(Oc2nc3ccc(Cl)cc3s2)cc1 [NZ-354, 1-{4-[(6-chloro-1,3-benzothiazol-2-yl)oxy]phenyl}-3,3-dimethylurea] | 5.14 | 50 to 100 µM | 1 µM (≈ 0.348 µg/mL) | 
30 | COC(=O)CCc1ccc(Oc2nc3ccc(Cl)cc3s2)cc1 [NZ-280, methyl 3-{4-[(6-chloro-1,3-benzothiazol-2-yl)oxy]phenyl}propanoate] |  |  | 6 µM (≈ 2.09 µg/mL) | inhibition at 20 µM [1]: 50%
31 | O=C(COc1ccc(Oc2cnc3cc(Cl)ccc3n2)cc1)NS(=O)(=O)c1ccccc1 [NZ-276, N-(benzenesulfonyl)-2-{4-[(6-chloroquinoxalin-2-yl)oxy]phenoxy}acetamide] | 5.14 |  | 3.1 µM (≈ 1.46 µg/mL) | 
32 | COC(=O)/C=C/c1ccc(Oc2nc3ccc(Cl)cc3s2)cc1 [NZ-281, methyl (2E)-3-{4-[(6-chloro-1,3-benzothiazol-2-yl)oxy]phenyl}prop-2-enoate] |  |  | 50 µM (≈ 17.3 µg/mL) | inhibition at 20 µM [1]: 30%
33 | CNC(=O)Nc1ccc(Oc2nc3ccc(Cl)cc3s2)cc1 [NZ-353, 1-{4-[(6-chloro-1,3-benzothiazol-2-yl)oxy]phenyl}-3-methylurea] | 5.40 | ≥ 100 µM |  | MIC [2]: Not Active
34 | CCOC(COc1ccc(Oc2cnc3cc(Cl)ccc3n2)cc1)OCC [NZ-272, 6-chloro-2-[4-(2,2-diethoxyethoxy)phenoxy]quinoxaline] | 5.24 |  | > 12.5 µM | 
35 | CN(C)C(=O)NCc1ccc(Oc2nc3ccc(Cl)cc3s2)cc1 [NZ-349, 1-({4-[(6-chloro-1,3-benzothiazol-2-yl)oxy]phenyl}methyl)-3,3-dimethylurea] | 5.15 | ≥ 100 µM | 8 µM (≈ 2.89 µg/mL) | 
36 | N#CCOc1ccc(Oc2cnc3cc(Cl)ccc3n2)cc1 [NZ-263, 2-{4-[(6-chloroquinoxalin-2-yl)oxy]phenoxy}acetonitrile] | 5.11 |  | > 50 µM | 
37 | Cc1cccc(Oc2nc3ccc(Cl)cc3s2)c1 [NZ-291, 6-chloro-2-(3-methylphenoxy)-1,3-benzothiazole] |  |  | 25 µM (≈ 6.89 µg/mL) | inhibition at 20 µM [1]: 30%
38 | O=C(COc1ccc(Oc2cnc3cc(Cl)ccc3n2)cc1)NS(=O)(=O)C(F)(F)F [NZ-275, 2-{4-[(6-chloroquinoxalin-2-yl)oxy]phenoxy}-N-trifluoromethanesulfonylacetamide] | 5.42 |  | 12.5 µM (≈ 5.77 µg/mL) | 

From US10300071B2, “Compositions and methods for inhibition of mycobacteria” (priority 2014, dated 2019)
